Data set [1] can be described thus: Reducing reaction by the Nelson-Somogyi's method. The format is physicochemical. From the text:
The α-glucosyl methyldopa preparations [I] and [II] turn green on the anthrone-sulfuric acid reaction. The preparations are negative on a reducing reaction by the Nelson-Somogy's method;

The nature of data set [2]: Solubility in solvent. The format is physicochemical.
A short description of data set [3]: Stability in aqueous solution (coloring degree at 400 nm relating to oxidation). Particulars: 100 mM phosphate buffer pH 8.0, 25° C.; for Stability compared with intact methyldopa: up to 9 days; for Coloring degree at 400 nm: 100 ppm. The class given is physicochemical. As for the experimental part: Fifty ml aliquots of 100 mM phosphate buffer (pH 8.0) were distributed into 50 ml-flasks, added with the α-glucosyl methyldopa preparation [I] or [II] to give a concentration of 100 ppm, allowed to stand at 25° C., and sampled at a prescribed time interval to determine the stability of the preparation.
Intact methyldopa was used as a control. Five ml solution was collected from each flask at a prescribed time interval, and subjected to the measurement of the coloring degree at 400 nm relating to the oxidation of methyldopa.

Data set [4] deals with β-glucosidase. In words: Stability against hydrolysis by β-glucosidase. The format is in vitro ADME. The source says:
(6) Stability against hydrolysis

Data set [5] concerns α-glucosidase (EC 3.2.1.20). Kind of data set: Stability against hydrolysis by α-glucosidase. The class given is in vitro ADME, pig. Particulars: forms the catecholamine (methyldopa) and D-glucose. From the text:
(6) Stability against hydrolysis (a) The α-glucosyl methyldopa preparations [I] and [II] are hydrolyzed by α-glucosidase (EC 3.2.1.20) specimen derived from pig liver to form methyldopa and D-glucose;

Data set [6] concerns 7-week-old dd mice. In words: Acute toxicity test (oral, mice). The format is in vivo. How it is done:
The α-glucosyl methyldopa preparations [I] and [II] were tested for their acute toxicity by orally administering them to 7-week-old dd mice.

In the case of `CC(N)(Cc1ccc(O)c(O[C@H]2O[C@H](CO)[C@@H](O)[C@H](O)[C@H]2O)c1)C(=O)O` (stereo partly drawn) [α-glucosyl methyldopa preparation [I], 3-[4-hydroxy-(3-α-D-glucopyranosyl)]-2-methylalanine], the “Reducing reaction / reducing activity” value in data set [1] was “negative”. In addition, in data set [2], the Solubility in benzen result is “insoluble”, the Solubility in chloroform entry is on record as “insoluble”, the Solubility in ethanol result is “slightly soluble” and the Solubility in ether entry is given as “insoluble”. In data set [2], the Solubility in methanol result is “slightly soluble” and the Solubility in water result is given as “readily soluble”. The “Stability compared with intact methyldopa” value in data set [3] is reported as “much stabler than intact methyldopa”. In addition, the “Coloring degree at 400 nm” value in data set [3] (day 0) stood at 0.0. The “Coloring degree at 400 nm” value in data set [3] (day 1) worked out at 0.0. In addition, the “Coloring degree at 400 nm” value in data set [3] (day 3) came out at 0.0. Further, the “Coloring degree at 400 nm” value in data set [3] (day 5) amounted to 0.0. Also, the “Coloring degree at 400 nm” value in data set [3] (day 9) is recorded as 0.0. Besides, the “Hydrolysis by β-glucosidase” value in data set [4] is given as “not hydrolyzed”. Besides, the “Hydrolysis by α-glucosidase” value in data set [5] was “hydrolyzed”. The “Acute toxicity: dose up to which no mouse died” value in data set [6] was at least 5000 mg/kg.

As for `CC(N)(Cc1ccc(O[C@H]2O[C@H](CO)[C@@H](O)[C@H](O)[C@H]2O)c(O)c1)C(=O)O` (stereo partly drawn) [α-glucosyl methyldopa preparation [II], 3-[3-hydroxy-(4-α-D-glucopyranosyl)]-2-methylalanine], in data set [1], the “Reducing reaction / reducing activity” value is reported as “negative”. Moreover, in data set [2], the Solubility in benzen result is recorded as “insoluble”, the Solubility in chloroform result is “insoluble”, the Solubility in ethanol entry is “slightly soluble” and the Solubility in ether result is given as “insoluble”. Further, in data set [2], the Solubility in methanol result is recorded as “slightly soluble” and the Solubility in water entry was “readily soluble”. Besides, in data set [3], the “Stability compared with intact methyldopa” value is “much stabler than intact methyldopa”. Moreover, the “Coloring degree at 400 nm” value in data set [3] (day 0) came out at 0.0. Also, the “Coloring degree at 400 nm” value in data set [3] (day 1) turned out to be 0.0. Moreover, in data set [3] (day 3), the “Coloring degree at 400 nm” value worked out at 0.0. For the same molecule, in data set [3] (day 5), the “Coloring degree at 400 nm” value amounted to 0.0. In addition, the “Coloring degree at 400 nm” value in data set [3] (day 9) amounted to 0.0. Also, in data set [4], the “Hydrolysis by β-glucosidase” value was “not hydrolyzed”. Besides, the “Hydrolysis by α-glucosidase” value in data set [5] was “hydrolyzed”. Further, in data set [6], the “Acute toxicity: dose up to which no mouse died” value was at least 5000 mg/kg.

For the origin of these results see patent US5656460A, “α-glycosyl derivative of the catecholamine or its salt, and its preparation and uses” (Kabushiki Kaisha Hayashibara Seibutsu Kagaku Kenkyujo, priority 1992, dated 1997).
